Reference: US9920025B2, “Antibiotic” (Koninklijke Nederlandse Akademie Van Wetenschappen, priority 2014, dated 2018)

Legend:
[1] = system: MRSA USA300; assay: Growth kinetics (time-kill curves); type: cell-based, Staphylococcus aureus; conditions: 50, 100 and 200 μg/ml, 37° C., 24 hrs
Experimental: (§1) Also preferred is a growth kinetic assay the effect of the compound of interest is assessed in time on growth of bacterial isolates on blood-agar plates, as known by the person skilled in the art. In brief, liquid cultures are inoculated in Mueller-Hinton Broth and incubated at 37° C. o/n. The o/n cultures were used to prepare a 0.05-0.1 McFarland suspension in Mueller Hinton Broth, which are incubated at 37° C. until 0.5 McFarland ([…]). These suspensions are used to inoculate 5 ml pre-warmed Mueller-Hinton Broth with approximately 1.5×10^5 CFU/ml with the appropriate antibiotic compound of interest. Directly after addition of the bacterial suspension a 0.25 ml sample is taken. Further 0.25 ml samples are taken after 1, 3, 6 and 24 hrs, which are added to 2.25 ml physiological salt solution. This suspension is used to prepare plates for CFU determination. The lower limit of detection is 40 CFU/ml. Bacterial suspension without antibiotics is preferably checked for normal growth after 24 hrs. A compound is understood herein as having antibacterial activity if at least 3 log10 reduction of CFU in the growth kinetics assay as passed after 1, 3, 6 or preferably 24 hours. […]

[2] = system: MSSA; assay: Growth kinetics (time-kill curves); type: cell-based, Staphylococcus aureus; conditions: 50, 100 and 200 μg/ml, 37° C., 24 hrs
Experimental: as §1

[3] = system: E. faecium (16D030); assay: Growth kinetics (time-kill curves); type: cell-based, Enterococcus faecium; conditions: 50, 100 and 200 μg/ml, 37° C., 24 hrs
Experimental: as §1

[4] = system: E. faecium (15A623); assay: Growth kinetics (time-kill curves); type: cell-based, Enterococcus faecium; conditions: 50, 100 and 200 μg/ml, 37° C., 24 hrs
Experimental: as §1

[5] = system: Staphylococcus epidermidis; assay: Growth kinetics (time-kill curves); type: cell-based; conditions: 50, 100 and 200 μg/ml, 37° C., 24 hrs
Experimental: (§2) Also preferred is a growth kinetic assay the effect of the compound of interest is assessed in time on growth of bacterial isolates on blood-agar plates, as known by the person skilled in the art. In brief, liquid cultures are inoculated in Mueller-Hinton Broth and incubated at 37° C. o/n. The o/n cultures were used to prepare a 0.05-0.1 McFarland suspension in Mueller Hinton Broth, which are incubated at 37° C. until 0.5 McFarland ([…]). These suspensions are used to inoculate 5 ml pre-warmed Mueller-Hinton Broth with approximately 1.5×10^5 CFU/ml with the appropriate antibiotic compound of interest. Directly after addition of the bacterial suspension a 0.25 ml sample is taken. Further 0.25 ml samples are taken after 1, 3, 6 and 24 hrs, which are added to 2.25 ml physiological salt solution. This suspension is used to prepare plates for CFU determination. The lower limit of detection is 40 CFU/ml. Bacterial suspension without antibiotics is preferably checked for normal growth after 24 hrs. A compound is understood herein as having antibacterial activity if at least 3 log10 reduction of CFU in the growth kinetics assay as passed after 1, 3, 6 or preferably 24 hours.
(§3) After elucidating the structure, we studied the growth kinetics of several Gram+bacteria in the presence of 50, 100 and 200 μg/ml of the compound of formula (I), in order to determine whether the compound was bacteriostatic or bactericidal. The bacteria were cultured at 37° C. for 24 hrs (with the exception of Streptococcus Pneumoniae which was cultured until 6 hrs) in the presence of the compound and samples were taken for colony counting at 0, 1, 3, 6 and 24 hrs.
(§4) More specifically, bacterial isolates as indicated below were grown on blood-agar plates. Liquid cultures were inoculated in Mueller-Hinton Broth and incubated at 37° C. o/n. The o/n cultures were used to prepare a 0.05-0.1 McFarland suspension in Mueller Hinton Broth, which was incubated at 37° C. until 0.5 McFarland ([…]). These suspensions were used to inoculate 5 ml pre-warmed Mueller-Hinton Broth with approximately 1.5×10^5 CFU/ml with the appropriate antibiotic and antibiotic concentration. Directly after addition of the bacterial suspension a 0.25 ml sample was taken. Further 0.25 ml samples were taken after 1, 3, 6 and 24 hrs. Samples were added to 2.25 ml physiological salt solution. This suspension was used to prepare plates for CFU determination. The lower limit of detection was 40 CFU/ml. Bacterial suspension without antibiotics was checked for normal growth after 24 hrs. Efficient bactericidal activity is defined as at least 3 log10 reduction of CFU.
(§5) The bacteria tested were two strains of Enterococcus faecium (FIGS. 2A and 2B), MRSA USA300 (FIG. 2C), MSSA (FIG. 2D), Staphylococcus epidermidis (FIG. 2E), Listeria monocytogenes (FIG. 2F), Streptococcus group A (FIG. 2G), Streptococcus group B (FIG. 2H) and Streptococcus pneumoniae (FIG. 2I).

[6] = system: Streptococcus pneumoniae; assay: Growth kinetics (time-kill curves); type: cell-based; conditions: 50, 100 and 200 μg/ml, 37° C., cultured until 6 hrs
Experimental: as §2, §3, §4, §5

[7] = system: Streptococcus Group A; assay: Growth kinetics (time-kill curves); type: cell-based; conditions: 50, 100 and 200 μg/ml, 37° C., 24 hrs
Experimental: as §2, §3, §4, §5

[8] = system: Streptococcus Group B; assay: Growth kinetics (time-kill curves); type: cell-based; conditions: 50, 100 and 200 μg/ml, 37° C., 24 hrs, bactericidal = at least 3 log10 reduction of CFU
Experimental: as §2, §3, §4, §5

[9] = system: Listeria monocytogenes; assay: Growth kinetics (time-kill curves); type: cell-based; conditions: 50, 100 and 200 μg/ml, 37° C., 24 hrs
Experimental: as §2, §3, §4, §5

[10] = system: Streptococcus group A (23M092); assay: Antibiotic activity of purified fraction (broth growth inhibition, serial dilution); type: cell-based; conditions: Gram+
Experimental: (§6) Preferably the compound of the invention has antimicrobial or antibiotic activity, more preferably antibacterial activity. Antimicrobial or antibacterial activity can be assessed by a suitable assay known by the person skilled in the art, preferably by a growth inhibition assay as exemplified herein. Preferably growth inhibition is assessed by culturing bacteria are cultured in the presence or absence of the antibacterial compound o/n at 37° C. in Luria Broth (LB). The read-out of the assay is by eye, if the bacteria have visibly grown, the sample is scored as non-inhibitory. If the broth is completely clear, the sample is scored as inhibitory.
(§7) Bacteria are cultured o/n at 37° C. in Luria Broth (LB). This culture is diluted 100× in fresh LB. This fresh culture is then used to test the filtrate and extract. The filtrate was tested in serial dilutions starting at 2× and further diluted with a factor 2 until 256×. The extract was tested starting at 10× dilution and further diluted with a factor 2 until 1280×. The bacteria with filtrate or extract were incubated o/n at 37° C. The read-out of the assay is by eye, if the bacteria have visibly grown, the sample is scored as non-inhibitory. If the broth is completely clear, the sample is scored as inhibitory.
(§8) The 95 fractions collected were pooled per 6 and the pooled fractions were dried in a speed-vac o/n. The fraction residues were dissolved in 1 ml 5% DMSO and tested on E. faecium (15A623) in serial dilutions starting at 2×. […] 1 ml of each fraction was dried in a speed-vac o/n and each fraction residue was dissolved in 1 ml 5% DMSO to be tested on E. faecium. […] The fraction was then tested on 19 additional strains of bacteria (Table 3).

[11] = system: Listeria monocytogenes (41-4a); assay: as above; type: cell-based; conditions: Gram+
Experimental: as §6, §7, §8

[12] = system: Klebsiella pneumonia (CP14); assay: as above; type: cell-based; conditions: ESBL TEM-18, Gram−, no effect at highest concentration
Experimental: as §6, §7, §8

[13] = system: Klebsiella pneumoniae (MR44); assay: as above; type: cell-based; conditions: Gram−, no effect at highest concentration
Experimental: as §6, §7, §8

[14] = system: Klebsiella pneumonia (JS006); assay: as above; type: cell-based; conditions: ESBL SHV-18, Gram−, no effect at highest concentration
Experimental: as §6, §7, §8

[15] = system: Stenotrophomonas maltophilia (20A226), NCCB 100516; assay: as above; type: cell-based; conditions: Gram−, no effect at highest concentration
Experimental: as §6, §7, §8

[16] = system: Methicillin-resistant Staphylococcus aureus (MRSA) ST8: USA300 (S1474) FPR3757, NARSA collection NRS482; assay: as above; type: cell-based; conditions: Gram+
Experimental: as §6, §7, §8

[17] = system: Escherichia coli (JS203); assay: as above; type: cell-based; conditions: ESBL CTX-M-1, Gram−, no effect at highest concentration
Experimental: as §6, §7, §8

[18] = system: Escherichia coli (CP131); assay: as above; type: cell-based; conditions: ESBL SHV-3, Gram−, no effect at highest concentration
Experimental: as §6, §7, §8

[19] = system: Staphylococcus epidermidis (08A1071); assay: as above; type: cell-based; conditions: Gram+
Experimental: as §6, §7, §8

[20] = system: Pseudomonas aeruginosa (04A191), NCCB 100515; assay: as above; type: cell-based; conditions: Gram−, no effect at highest concentration
Experimental: as §6, §7, §8

[21] = system: Streptococcus pneumoniae (14B186); assay: as above; type: cell-based; conditions: Gram+
Experimental: as §6, §7, §8

[22] = system: Methicillin-sensitive Staphylococcus aureus 476 (S0101), ATCC BAA-1721; assay: as above; type: cell-based; conditions: Gram+
Experimental: as §6, §7, §8

[23] = system: Acinetobacter calcoaceticus (15A600), NCCB 100514; assay: as above; type: cell-based; conditions: Gram−, no effect at highest concentration
Experimental: as §6, §7, §8

[24] = system: Enterococcus faecium(15A623); assay: as above; type: cell-based
Experimental: as §6, §7, §8

[25] = system: Escherichia coli (JS004); assay: as above; type: cell-based; conditions: ESBL TEM-3, Gram−, no effect at highest concentration
Experimental: as §6, §7, §8

[26] = system: Klebsiella pneumonia (JS264); assay: as above; type: cell-based; conditions: ESBL CTX-M-15, Gram−, no effect at highest concentration
Experimental: as §6, §7, §8

[27] = system: Streptococcus group B (05A396); assay: as above; type: cell-based; conditions: Gram+
Experimental: as §6, §7, §8

[28] = system: Enterococcus faecium(16D030); assay: as above; type: cell-based; conditions: Gram+
Experimental: as §6, §7, §8

## CC1CCC(=O)/C=C/C(=O)O1 (stereo not drawn) [compound of formula (I), (E)-8-methyl-7,8-dihydro-2H-oxocine-2,5(6H)-dione]
[1]
  bacteriostatic or bactericidal (time-kill curves): bactericidal
[2]
  bacteriostatic or bactericidal (time-kill curves): bactericidal
[3]
  bacteriostatic or bactericidal (time-kill curves): bacteriostatic
[4]
  bacteriostatic or bactericidal (time-kill curves): bacteriostatic
[5]
  bacteriostatic or bactericidal (time-kill curves): bactericidal
[6]
  bacteriostatic or bactericidal (time-kill curves): bactericidal
[7]
  bacteriostatic or bactericidal (time-kill curves): bactericidal
[8]
  bacteriostatic or bactericidal (time-kill curves): bacteriostatic
[9]
  bacteriostatic or bactericidal (time-kill curves): bactericidal
[10]
  Minimal concentration for antibacterial activity: 75.0 mg/1
[11]
  Minimal concentration for antibacterial activity: 75.0 mg/1
[12]
  Minimal concentration for antibacterial activity: No effect at 1.5 g/l
[13]
  Minimal concentration for antibacterial activity: No effect at 1.5 g/l
[14]
  Minimal concentration for antibacterial activity: No effect at 1.5 g/l
[15]
  Minimal concentration for antibacterial activity: No effect at 1.5 g/l
[16]
  Minimal concentration for antibacterial activity: 18.8 mg/L
[17]
  Minimal concentration for antibacterial activity: No effect at 1.5 g/l
[18]
  Minimal concentration for antibacterial activity: No effect at 1.5 g/l
[19]
  Minimal concentration for antibacterial activity: 18.8 mg/L
[20]
  Minimal concentration for antibacterial activity: No effect at 1.5 g/l
[21]
  Minimal concentration for antibacterial activity: 75.0 mg/1
[22]
  Minimal concentration for antibacterial activity: 4.69 mg/L
[23]
  Minimal concentration for antibacterial activity: No effect at 1.5 g/l
[24]; E. faecium (15A623), residue in 1 ml 5% DMSO, serial dilutions starting at 2×
  inhibition of bacterial growth by HPLC fractions: inhibited bacterial growth
[24]; Enterococcus faecium(15A623), Gram+
  Minimal concentration for antibacterial activity: 37.5 mg/1
[24]; compound of formula (I) and hydrogenated derivative at similar concentrations
  activity against E. faecium (15A623): active
[25]
  Minimal concentration for antibacterial activity: No effect at 1.5 g/l
[26]
  Minimal concentration for antibacterial activity: No effect at 1.5 g/l
[27]
  Minimal concentration for antibacterial activity: 75.0 mg/1
[28]
  Minimal concentration for antibacterial activity: 75.0 mg/1
